According to patent US7214682B2, “Substituted 2-pyridinyl-6,7,8,9-tetrahydropyrimido{1,2-a}pyrimidin-4-one and 7-pyridinyl-2,3-dihydroimidazo{1,2-a}pyrimidin-5(1h)one derivatives” (Sanofi-aventis, priority 2001, dated 2007):

How the values were obtained:
GSK3β = GSK3β (Homo sapiens, UniProt P49841); test: Inhibitory activity against GSK3β (TPK1), 33P-ATP phosphorylation of GS1 peptide; format: biochemical; details: TPK1 = GSK3β (b5); table 4
Method: Two different protocols can be used.
In a first protocol: 7.5 μM of prephosphorylated GS1 peptide and 10 μM ATP (containing 300,000 cpm of 33P-ATP) were incubated in 25 mM Tris-HCl, pH 7.5, 0.6 mM DTT, 6 mM MgCl2, 0.6 mM EGTA, 0.05 mg/ml BSA buffer for 1 hour at room temperature in the presence of GSK3β (total reaction volume: 100 microliters).
In a second protocol: 4.1 μM of prephosphorylated GS1 peptide and 42 μM ATP (containing 260,000 cpm 33P-ATP) were incubated in 80 mM Mes-NaOH, pH 6.5, 1 mM Mg acetate, 0.5 mM EGTA, 5 mM 2-mercaptoethanol, 0.02% Tween 20, 10% glycerol buffer for 2 hours at room temperature in the presence of GSK3β.
Inhibitors were solubilized in DMSO (final solvent concentration in the reaction medium, 1%).
The reaction was stopped with 100 microliters of a solution made of 25 g polyphosphoric acid (85% P2O5), 126 ml 85% H3PO4, H2O to 500 ml and then diluted to 1:100 before use. An aliquot of the reaction mixture was then transferred to Whatman P81 cation exchange filters and rinsed with the solution described above. Incorporated 33P radioactivity was determined by liquid scintillation spectrometry.
The phosphorylated GS-1 peptide had the following sequence: NH2-[…](P)EDEE-COOH.
The GSK3β inhibitory activity of the compounds of the present invention are expressed in IC50, and as an illustration the range of IC50's of the compounds in table 1 is between 4 nanomolar to 2 micromolar concentrations, of the compounds in table 2 is between 30 nanomolar to 2 micromolar concentrations and of the compounds in table three is between 1 nanomolar to 2 micromolar.

cdk5/p25 = cdk5/p25 (Homo sapiens, UniProt Q00535); test: Inhibitory activity against cdk5/p25 (TPK2), 33P-ATP phosphorylation of Histone H1; format: biochemical; details: TPK2 = cdk5/p25 (b7); table 4
Method: The following protocol may be used: 0.4 mg/ml Histone H1 and 10 μM ATP (containing 300,000 cpm of ^33P-ATP) were incubated in 50 mM Hepes, pH 7.2, 1 mM DTT, 1 mM MgCl2, 1 mM EGTA, 0.02% Tween 20 buffer for 1 hour at room temperature in the presence of cdk5/p25 (total reaction volume: 100 microliters). Inhibitors were solubilized in DMSO (final solvent concentration in the reaction medium, 1%). The reaction was stopped with 100 microliters of a solution of 25 g polyphosphoric acid (85% P2O5), 126 ml 85% H3PO4, H2O to 500 ml (diluted to 1:100 before use). An aliquot of the reaction mixture was then transferred to Whatman P81 cation exchange filters and rinsed with the solution described above. Incorporated ^33P radioactivity was determined by liquid scintillation spectrometry. The cdk5/p25 inhibitory activity of the compounds of the present invention are expressed as IC50 values. Typically, 3-fold serial dilutions of the inhibitor over at least a 1000-fold concentration range are used.

cdk5/p25, sequence (Q00535 whole entry, species assumed): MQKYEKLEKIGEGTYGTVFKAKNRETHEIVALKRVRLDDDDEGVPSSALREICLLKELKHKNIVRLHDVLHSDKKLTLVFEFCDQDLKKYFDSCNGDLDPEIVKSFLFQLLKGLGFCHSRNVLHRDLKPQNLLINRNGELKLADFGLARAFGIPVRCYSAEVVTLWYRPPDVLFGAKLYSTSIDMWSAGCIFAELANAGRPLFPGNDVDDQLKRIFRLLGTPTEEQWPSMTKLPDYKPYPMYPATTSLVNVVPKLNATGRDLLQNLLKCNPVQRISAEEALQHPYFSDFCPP
cdk5/p25, sequence (Q15078 99-307 partner limits assumed, species assumed): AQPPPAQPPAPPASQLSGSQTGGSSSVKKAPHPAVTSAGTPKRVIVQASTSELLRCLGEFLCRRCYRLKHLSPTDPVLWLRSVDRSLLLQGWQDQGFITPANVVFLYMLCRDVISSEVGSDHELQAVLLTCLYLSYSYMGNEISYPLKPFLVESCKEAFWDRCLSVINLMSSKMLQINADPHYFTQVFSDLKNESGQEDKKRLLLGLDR
GSK3β, sequence (P49841 whole entry, species assumed): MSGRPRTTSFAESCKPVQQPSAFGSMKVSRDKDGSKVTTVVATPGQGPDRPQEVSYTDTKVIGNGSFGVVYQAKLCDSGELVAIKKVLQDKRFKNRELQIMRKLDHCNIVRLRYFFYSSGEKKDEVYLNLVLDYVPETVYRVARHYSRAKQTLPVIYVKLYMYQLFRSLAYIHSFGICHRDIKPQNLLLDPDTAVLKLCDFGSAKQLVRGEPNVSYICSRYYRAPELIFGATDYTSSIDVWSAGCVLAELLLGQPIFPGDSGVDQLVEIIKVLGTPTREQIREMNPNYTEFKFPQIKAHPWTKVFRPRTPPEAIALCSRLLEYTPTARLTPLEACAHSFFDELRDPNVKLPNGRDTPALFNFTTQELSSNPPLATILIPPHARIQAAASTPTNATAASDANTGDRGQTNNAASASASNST

Structure (SMILES)	IC50 (GSK3β)	IC50 (cdk5/p25)	melting point
CC1(C)CN(C[C@@H](O)c2ccccc2)c2nc(-c3ccncc3)c(F)c(=O)n2C1 [Table 1 Compound 12, 9-(2(S)-Hydroxy-2-phenyl-ethyl)-3-fluoro-7,7-dimethyl-2-(pyridin-4-yl)-6,7,8,9-tetrahydro-4H-pyrimido[1,2-a]pyrimidin-4-one]	11 nM	334 nM	–
CO[C@H](CN1CCCn2c1nc(-c1ccncc1)c(F)c2=O)c1ccccc1 [Table 1 Compound 45, 9-(2(S)-Methoxy-2-phenyl-ethyl)-3-fluoro-2-(pyridin-4-yl)-6,7,8,9-tetrahydro-4H-pyrimido[1,2-a]pyrimidin-4-one]	6 nM	> 1000 nM	–
CC1CCn2c(nc(-c3ccncc3)c(F)c2=O)N1CC(=O)c1ccccc1 (racemic) [Table 3 Compound 18, 3-Fluoro-8-methyl-9-(2-oxo-2-phenyl-ethyl)-2-(pyridin-4-yl)-6,7,8,9-tetrahydro-pyrimido[1,2-a]pyrimidin-4-one]	–	–	201 to 202 °C
O=c1cc(-c2ccncc2)nc2n1CC(F)(F)CN2C[C@@H](O)c1ccccc1 [Table 1 Compound 5, 9-(2(S)-Hydroxy-2-phenyl-ethyl)-7,7-difluoro-2-(pyridin4-yl)-6,7,8,9-tetrahydro-4H-pyrimido[1,2-a]pyrimidin-4-one]	60 nM	67 nM	–
O=c1c(Cl)c(-c2ccncc2)nc2n1CCCN2C[C@@H](O)c1ccccc1 [Table 1 Compound 42, 9-(2(S)-Hydroxy-2-phenyl-ethyl)-3-chloro-2-(pyridin-4-yl)-6,7,8,9-tetrahydro-4H-pyrimido[1,2-a]pyrimidin-4-one]	28 nM	154 nM	–

Continued, values first:

IC50 (GSK3β)	IC50 (cdk5/p25)	melting point	Structure (SMILES)
6 nM	> 1000 nM	–	O=c1c(F)c(-c2ccncc2)nc2n1CCCN2C[C@@H](O)c1ccccc1 [Table 1 Compound 44, 9-(2(S)-Hydroxy-2-phenyl-ethyl)-3-fluoro-2-(pyridin-4-yl)-6,7,8,9-tetrahydro-4H-pyrimido[1,2-a]pyrimidin-4-one]
4 nM	62 nM	–	O=C(CN1CCCn2c1nc(-c1ccncc1)c(Cl)c2=O)c1ccccc1 [Table 1 Compound 39, 9-(2-Oxo-2-phenyl-ethyl)-3-chloro-2-(pyridin-4-yl)-6,7,8,9-tetrahydro-4H-pyrimido[1,2-a]pyrimidin-4-one]
4 nM	4600 nM	–	O=C(CN1CCCn2c1nc(-c1ccncc1)c(F)c2=O)c1cccc(F)c1 [Table 1 Compound 37, 9-[2-Oxo-2-(3-fluorophenyl)-ethyl]-3-fluoro-2-(pyridin-4-yl)-6,7,8,9-tetrahydro-4H-pyrimido[1,2-a]pyrimidin-4-one]
5 nM	77 nM	–	O=C(CN1CCCn2c1nc(-c1ccncc1)c(Br)c2=O)c1ccccc1 [Table 1 Compound 40, 9-(2-Oxo-2-phenyl-ethyl)-3-bromo-2-(pyridin-4-yl)-6,7,8,9-tetrahydro-4H-pyrimido[1,2-a]pyrimidin-4-one]
1 nM	> 1000 nM	–	Cc1ccc([C@H](O)CN2c3nc(-c4ccncc4)cc(=O)n3CCC2(C)C)cc1 [Table 3 Compound 32, 9-(2(S)-Hydroxy-2-p-tolyl-ethyl)-8,8-dimethyl-2-(pyridin-4-yl)-6,7,8,9-tetrahydro-pyrimido[1,2-a]pyrimidin-4-one]
4 nM	344 nM	–	CC1CCn2c(nc(-c3ccncc3)cc2=O)N1C[C@@H](O)c1ccccc1 (mixture of isomers) [Table 3 Compound 7, 9-[2(S)-Hydroxy-2-phenyl-ethyl]-8-methyl-2-(pyridin-4-yl)-6,7,8,9-tetrahydro-pyrimido[1,2-a]pyrimidin-4-one]
